Key:
[1] = biological target: T1, WRN [UniPro: Q14191 (WRN_HUMAN), N500-C946] (Homo sapiens (Human), UniProt Q14191); assay: WRN ATPase assay (ADP-Glo); assay type: biochemical; conditions: WRN enzymatic activity assay
[2] = biological target: T1, WRN [UniPro: Q14191 (WRN_HUMAN), N500-C946]; assay: WRN unwinding assay (FORKF DNA, fluorescence); assay type: biochemical; conditions: Table 14

T1 sequence (Q14191 500-946): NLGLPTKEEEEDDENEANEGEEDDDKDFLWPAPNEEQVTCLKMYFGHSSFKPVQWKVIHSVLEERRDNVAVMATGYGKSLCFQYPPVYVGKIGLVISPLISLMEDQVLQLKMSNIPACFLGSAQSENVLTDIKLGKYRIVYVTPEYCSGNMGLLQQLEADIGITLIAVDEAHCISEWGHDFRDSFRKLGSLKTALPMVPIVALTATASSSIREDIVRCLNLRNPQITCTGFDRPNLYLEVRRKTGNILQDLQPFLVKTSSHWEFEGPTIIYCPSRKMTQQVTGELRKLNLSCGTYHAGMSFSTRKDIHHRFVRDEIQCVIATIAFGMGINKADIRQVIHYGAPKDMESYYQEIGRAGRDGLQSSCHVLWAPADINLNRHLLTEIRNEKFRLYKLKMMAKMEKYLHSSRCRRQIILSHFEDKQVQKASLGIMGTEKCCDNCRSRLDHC

Compound	IC50 [1]	IC50 [2]
CCc1c(N2CCN(C(=O)c3nn4ccnc4cc3O)CC2)c(=O)n2nc(C3=CCOCC3)nc2n1CC(=O)Nc1ccc(C(F)(F)F)cc1Cl [Example 85, N-(2-Chloro-4-(trifluoromethyl)phenyl)-2-(2-(3,6-dihydro-2H-pyran-4-yl)-5-ethyl-6-(4-(7-hydroxyimidazo[1,2-b]pyridazine-6-carbonyl)piperazin-1-yl)-7-oxo-[1,2,4]triazolo[1,5-a]pyrimidin-4(7H)-yl)acetamide]	< 100 nM	< 100 nM
CCc1c(N2CCN(C(=O)CNC(=O)Cc3ccc(F)cc3)CC2)c(=O)n2nc(C3=CCOCC3)nc2n1CC(=O)Nc1ccc(C(F)(F)F)cc1Cl [Example 177, N-(2-Chloro-4-(trifluoromethyl)phenyl)-2-(2-(3,6-dihydro-2H-pyran-4-yl)-5-ethyl-6-(4-((2-(4-fluorophenyl)acetyl)glycyl)piperazin-1-yl)-7-oxo-[1,2,4]triazolo[1,5-a]pyrimidin-4(7H)-yl)acetamide]	< 100 nM	< 100 nM
CCc1c(N2CCN(C(=O)CNC(=O)c3ccc(F)c(F)c3O)CC2)c(=O)n2nc(C3=CCOCC3)nc2n1CC(=O)Nc1ccc(C(F)(F)F)cc1F [Example 214, N-(2-(4-(2-(3,6-Dihydro-2H-pyran-4-yl)-5-ethyl-4-(2-((2-fluoro-4-(trifluoromethyl)phenyl)amino)-2-oxoethyl)-7-oxo-4,7-dihydro-[1,2,4]triazolo[1,5-a]pyrimidin-6-yl)piperazin-1-yl)-2-oxoethyl)-3,4-difluoro-2-hydroxybenzamide]	< 100 nM	< 100 nM
CCc1c(N2CCN(C(=O)CNC(=O)c3cnn(C)c3)CC2)c(=O)n2nc(C3=CCOCC3)nc2n1CC(=O)Nc1ccc(C(F)(F)F)cc1Cl [Example 103, N-(2-(4-(4-(2-((2-Chloro-4-(trifluoromethyl)phenyl)amino)-2-oxoethyl)-2-(3,6-dihydro-2H-pyran-4-yl)-5-ethyl-7-oxo-4,7-dihydro-[1,2,4]triazolo[1,5-a]pyrimidin-6-yl)piperazin-1-yl)-2-oxoethyl)-1-methyl-1H-pyrazole-4-carboxamide]	< 100 nM	< 100 nM
CCc1c(N2CCN(C(=O)c3cnc4scnc4c3O)CC2)c(=O)n2nc(C3=CCOCC3)nc2n1CC(=O)Nc1ccc(C(F)(F)F)cc1Cl [Example 49, N-(2-Chloro-4-(trifluoromethyl)phenyl)-2-(2-(3,6-dihydro-2H-pyran-4-yl)-5-ethyl-6-(4-(7-hydroxythiazolo[5,4-b]pyridine-6-carbonyl)piperazin-1-yl)-7-oxo-[1,2,4]triazolo[1,5-a]pyrimidin-4(7H)-yl)acetamide]	< 100 nM	< 100 nM
CCc1c(N2CCN(C(=O)C(=O)Nc3ccccn3)CC2)c(=O)n2nc(C3=CCOCC3)nc2n1CC(=O)Nc1ccc(C(F)(F)F)cc1F [Example 229, 2-(4-(2-(3,6-Dihydro-2H-pyran-4-yl)-5-ethyl-4-(2-((2-fluoro-4-(trifluoromethyl)phenyl)amino)-2-oxoethyl)-7-oxo-4,7-dihydro-[1,2,4]triazolo[1,5-a]pyrimidin-6-yl)piperazin-1-yl)-2-oxo-N-(pyridin-2-yl)acetamide]	100 to 1000 nM	< 100 nM
CCc1c(N2CCN(C(=O)c3sc4ncccc4c3O)CC2)c(=O)n2nc(C3=CCOCC3)nc2n1CC(=O)Nc1ccc(C(F)(F)F)cc1Cl [Example 87, N-(2-Chloro-4-(trifluoromethyl)phenyl)-2-(2-(3,6-dihydro-2H-pyran-4-yl)-5-ethyl-6-(4-(3-hydroxythieno[2,3-b]pyridine-2-carbonyl)piperazin-1-yl)-7-oxo-[1,2,4]triazolo[1,5-a]pyrimidin-4(7H)-yl)acetamide]	< 100 nM	< 100 nM
CCc1c(N2CCN(C(=O)CNC(=O)c3cccnc3)CC2)c(=O)n2nc(C3=CCOCC3)nc2n1CC(=O)Nc1ccc(C(F)(F)F)cc1Cl [Example 110, N-(2-(4-(4-(2-((2-Chloro-4-(trifluoromethyl)phenyl)amino)-2-oxoethyl)-2-(3,6-dihydro-2H-pyran-4-yl)-5-ethyl-7-oxo-4,7-dihydro-[1,2,4]triazolo[1,5-a]pyrimidin-6-yl)piperazin-1-yl)-2-oxoethyl)nicotinamide]	< 100 nM	< 100 nM
CCc1c(N2CCN(C(=O)c3nc4ccccc4cc3O)CC2)c(=O)n2nc(C3=CCOCC3)nc2n1CC(=O)Nc1ccc(C(F)(F)F)cc1Cl [Example 306, N-(2-Chloro-4-(trifluoromethyl)phenyl)-2-(2-(3,6-dihydro-2H-pyran-4-yl)-5-ethyl-6-(4-(3-hydroxyquinoline-2-carbonyl)piperazin-1-yl)-7-oxo-[1,2,4]triazolo[1,5-a]pyrimidin-4(7H)-yl)acetamide]	< 100 nM	< 100 nM
CCc1c(N2CCN(C(=O)CNC(=O)c3cc(C)no3)CC2)c(=O)n2nc(C3=CCOCC3)nc2n1CC(=O)Nc1ccc(C(F)(F)F)cc1Cl [Example 130, N-(2-(4-(4-(2-((2-Chloro-4-(trifluoromethyl)phenyl)amino)-2-oxoethyl)-2-(3,6-dihydro-2H-pyran-4-yl)-5-ethyl-7-oxo-4,7-dihydro-[1,2,4]triazolo[1,5-a]pyrimidin-6-yl)piperazin-1-yl)-2-oxoethyl)-3-methylisoxazole-5-carboxamide]	< 100 nM	< 100 nM
CCc1c(N2CCN(C(=O)CNC(=O)c3ccon3)CC2)c(=O)n2nc(C3=CCOCC3)nc2n1CC(=O)Nc1ccc(C(F)(F)F)cc1F [Example 221, N-(2-(4-(2-(3,6-Dihydro-2H-pyran-4-yl)-5-ethyl-4-(2-((2-fluoro-4-(trifluoromethyl)phenyl)amino)-2-oxoethyl)-7-oxo-4,7-dihydro-[1,2,4]triazolo[1,5-a]pyrimidin-6-yl)piperazin-1-yl)-2-oxoethyl)isoxazole-3-carboxamide]	< 100 nM	< 100 nM
CCc1c(N2CCN(C(=O)C(=O)Nc3cc(C)ns3)CC2)c(=O)n2nc(C3=CCOCC3)nc2n1CC(=O)Nc1ccc(C(F)(F)F)cc1F [Example 325, 2-(4-(2-(3,6-Dihydro-2H-pyran-4-yl)-5-ethyl-4-(2-((2-fluoro-4-(trifluoromethyl)phenyl)amino)-2-oxoethyl)-7-oxo-4,7-dihydro-[1,2,4]triazolo[1,5-a]pyrimidin-6-yl)piperazin-1-yl)-N-(3-methylisothiazol-5-yl)-2-oxoacetamide]	< 100 nM	< 100 nM
CCc1c(N2CCN(C(=O)C(=O)Nc3ccncn3)CC2)c(=O)n2nc(C3=CCOCC3)nc2n1CC(=O)Nc1ccc(C(F)(F)F)cc1F [Example 340, 2-(4-(2-(3,6-Dihydro-2H-pyran-4-yl)-5-ethyl-4-(2-((2-fluoro-4-(trifluoromethyl)phenyl)amino)-2-oxoethyl)-7-oxo-4,7-dihydro-[1,2,4]triazolo[1,5-a]pyrimidin-6-yl)piperazin-1-yl)-2-oxo-N-(pyrimidin-4-yl)acetamide]	100 to 1000 nM	100 to 1000 nM
CCc1c(N2CCN(C(=O)CNC(=O)c3ccccc3)CC2)c(=O)n2nc(N3Cc4ccncc4C3)nc2n1CC(=O)Nc1ccc(C(F)(F)F)cc1Cl [Example 232, N-(2-(4-(4-(2-((2-Chloro-4-(trifluoromethyl)phenyl)amino)-2-oxoethyl)-2-(1,3-dihydro-2H-pyrrolo[3,4-c]pyridin-2-yl)-5-ethyl-7-oxo-4,7-dihydro-[1,2,4]triazolo[1,5-a]pyrimidin-6-yl)piperazin-1-yl)-2-oxoethyl)benzamide]	< 100 nM	< 100 nM
CCc1c(N2CCN(C(=O)c3nnc(C(F)(F)F)[nH]3)CC2)c(=O)n2nc(C3=CCOCC3)nc2n1CC(=O)Nc1ccc(C(F)(F)F)cc1F [Example 311, 2-(2-(3,6-Dihydro-2H-pyran-4-yl)-5-ethyl-7-oxo-6-(4-(5-(trifluoromethyl)-4H-1,2,4-triazole-3-carbonyl)piperazin-1-yl)-[1,2,4]triazolo[1,5-a]pyrimidin-4(7H)-yl)-N-(2-fluoro-4-(trifluoromethyl)phenyl)acetamide]	< 100 nM	< 100 nM
CCOC(=O)NCC(=O)N1CCN(c2c(CC)n(CC(=O)Nc3ccc(C(F)(F)F)cc3Cl)c3nc(C4=CCOCC4)nn3c2=O)CC1 [Example 167, Ethyl (2-(4-(4-(2-((2-chloro-4-(trifluoromethyl)phenyl)amino)-2-oxoethyl)-2-(3,6-dihydro-2H-pyran-4-yl)-5-ethyl-7-oxo-4,7-dihydro-[1,2,4]triazolo[1,5-a]pyrimidin-6-yl)piperazin-1-yl)-2-oxoethyl)carbamate]	< 100 nM	< 100 nM
CCc1c(N2CCN(C(=O)c3nnc(C(F)F)[nH]3)CC2)c(=O)n2nc(C3=CCOCC3)nc2n1CC(=O)Nc1ccc(C(F)(F)F)cc1F [Example 310, 2-(6-(4-(5-(Difluoromethyl)-4H-1,2,4-triazole-3-carbonyl)piperazin-1-yl)-2-(3,6-dihydro-2H-pyran-4-yl)-5-ethyl-7-oxo-[1,2,4]triazolo[1,5-a]pyrimidin-4(7H)-yl)-N-(2-fluoro-4-(trifluoromethyl)phenyl)acetamide]	< 100 nM	< 100 nM
CCc1c(N2CCN(C(=O)CNC(=O)c3ccccc3OC)CC2)c(=O)n2nc(C3=CCOCC3)nc2n1CC(=O)Nc1ccc(C(F)(F)F)cc1Cl [Example 112, N-(2-(4-(4-(2-((2-Chloro-4-(trifluoromethyl)phenyl)amino)-2-oxoethyl)-2-(3,6-dihydro-2H-pyran-4-yl)-5-ethyl-7-oxo-4,7-dihydro-[1,2,4]triazolo[1,5-a]pyrimidin-6-yl)piperazin-1-yl)-2-oxoethyl)-2-methoxybenzamide]	< 100 nM	< 100 nM
CCc1c(N2CCN(C(=O)CNC(=O)c3ccccc3F)CC2)c(=O)n2nc(N3CC(F)(F)C3)nc2n1CC(=O)Nc1ccc(C(F)(F)F)cc1Cl [Example 244, N-(2-(4-(4-(2-((2-Chloro-4-(trifluoromethyl)phenyl)amino)-2-oxoethyl)-2-(3,3-difluoroazetidin-1-yl)-5-ethyl-7-oxo-4,7-dihydro-[1,2,4]triazolo[1,5-a]pyrimidin-6-yl)piperazin-1-yl)-2-oxoethyl)-2-fluorobenzamide]	< 100 nM	100 to 1000 nM

Source: patent US20260015358A1, “BICYCLIC DERIVATIVES, COMPOSITIONS AND USES THEREOF” (Danatlas Pharmaceuticals Co., Ltd., priority 2023, published 2026)
